Source: publication PMC10066365, “Nemacol is a small molecule inhibitor of C. elegans vesicular acetylcholine transporter with anthelmintic potential” (Nature Communications, 2023)
Several values for one entry are separate records, joined by “and”; a condition that tells them apart may be missing. Equal values may be shown once.

Legend:
C. elegans = C. elegans motor phenotype scoring on solid media (Punc/jerky-unc, coiled, paralyzed), wild-type young adults; assay type: in vivo, Caenorhabditis elegans; settings: for atypical locomotion (number of animals) / no phene (number of animals) / paralyzed (number of animals) / any phene: mean % fraction of young adults exhibiting any phenotype (coiled, jerky-Unc or paralyzed) / coiled (number of animals): one hour; for atypical locomotion (number of animals) / no phene (number of animals) / paralyzed (number of animals) / coiled (number of animals): young adults, 20 animals per trial, single technical replicate; for any phene: mean % fraction of young adults exhibiting any phenotype (coiled, jerky-Unc or paralyzed): mean of three biological replicates; for Fraction Coiled / Fraction Jerky-Unc / Fraction No Phenotype / Fraction Parayzed: 60 min
Pristionchus pacificus = Pristionchus pacificus motor disruption dose-response on solid media, 1 h; settings: for mean % any phene (coiled, jerky-Unc or paralyzed): Pristionchus pacificus young adults, mean of three biological replicates
[1] = 15 µM, N2 adult worms, Averages of 3 biological repeats
[2] = 15 µM, N2 adult worms, Bio Rep 1
[3] = 15 µM, N2 adult worms, Bio Rep 3
[4] = 15 µM, N2 adult worms, Bio rep 2
[5] = 30 µM, N2 adult worms, Averages of 3 biological repeats
[6] = 30 µM, N2 adult worms, Bio Rep 1
[7] = 30 µM, N2 adult worms, Bio Rep 3
[8] = 30 µM, N2 adult worms, Bio rep 2
[9] = 60 µM, N2 adult worms, Averages of 3 biological repeats
[10] = 60 µM, N2 adult worms, Bio Rep 1
[11] = 60 µM, N2 adult worms, Bio Rep 3
[12] = 60 µM, N2 adult worms, Bio rep 2
[13] = 120 µM, N2 adult worms, Averages of 3 biological repeats
[14] = 120 µM, N2 adult worms, Bio Rep 1
[15] = 120 µM, N2 adult worms, Bio Rep 3
[16] = 120 µM, N2 adult worms, Bio rep 2
[17] = 240 µM, N2 adult worms, Averages of 3 biological repeats
[18] = 240 µM, N2 adult worms, Bio Rep 1
[19] = 240 µM, N2 adult worms, Bio Rep 3
[20] = 240 µM, N2 adult worms, Bio rep 2
[21] = N2, 15 µM, adult worms, average of 3 biological repeats
[22] = N2, 30 µM, adult worms, average of 3 biological repeats
[23] = N2, 60 µM, adult worms, average of 3 biological repeats
[24] = N2, 120 µM, adult worms, average of 3 biological repeats
[25] = N2, 240 µM, adult worms, average of 3 biological repeats

For `O[C@@H]1CCCC[C@H]1N1CCC(c2ccccc2)CC1` (racemic) [vesamicol, reference compound], the “atypical locomotion (number of animals)” value (C. elegans; 3.75uM) was 0, the “no phene (number of animals)” value (C. elegans; 3.75uM) was 20 and the “paralyzed (number of animals)” value (C. elegans; 3.75uM) was 0. For the same compound, the “any phene: mean % fraction of young adults exhibiting any phenotype (coiled, jerky-Unc or paralyzed)” value (from here on “any phene: mean % fraction”) (C. elegans; 3.75uM) was 0%, the “Fraction Coiled” value (C. elegans; [1]) was 0.00 and the “Fraction Jerky-Unc” value (C. elegans; [1]) was 0.17. For the same compound, the “Fraction No Phenotype” value (C. elegans; [1]) was 0.83, the “Fraction Parayzed” value (C. elegans; [1]) was 0.00 and the “Fraction Jerky-Unc” value (C. elegans; [2]) was 0.2778. For the same compound, the “Fraction No Phenotype” value (C. elegans; [2]) was 0.72, the “Fraction Parayzed” value (C. elegans; [2]) was 0 and the “Fraction Coiled” value (C. elegans; [3]) was 0.00. The “Fraction Jerky-Unc” value (C. elegans; [3]) was 0.1667, the “Fraction No Phenotype” value (C. elegans; [3]) was 0.83 and the “Fraction Parayzed” value (C. elegans; [3]) was 0. For the same compound, the “Fraction Coiled” value (C. elegans; [4]) was 0.00, the “Fraction Jerky-Unc” value (C. elegans; [4]) was 0.05556 and the “Fraction No Phenotype” value (C. elegans; [4]) was 0.94. The “Fraction Parayzed” value (C. elegans; [4]) was 0, the “atypical locomotion (number of animals)” value (C. elegans; 15uM) was 0 and the “coiled (number of animals)” value (C. elegans; 15uM) was 0. The “no phene (number of animals)” value (C. elegans; 15uM) was 20, the “paralyzed (number of animals)” value (C. elegans; 15uM) was 0 and the “any phene: mean % fraction” value (C. elegans; 15uM) was 0%. For the same compound, the “Fraction Coiled” value (C. elegans; [5]) was 0.00, the “Fraction Jerky-Unc” value (C. elegans; [5]) was 0.41 and the “Fraction No Phenotype” value (C. elegans; [5]) was 0.59. For the same compound, the “Fraction Parayzed” value (C. elegans; [5]) was 0.00, the “Fraction Coiled” value (C. elegans; [6]) was 0.00 and the “Fraction Jerky-Unc” value (C. elegans; [6]) was 0.3889. For the same compound, the “Fraction No Phenotype” value (C. elegans; [6]) was 0.61, the “Fraction Parayzed” value (C. elegans; [6]) was 0 and the “Fraction Coiled” value (C. elegans; [7]) was 0.00. For the same compound, the “Fraction Jerky-Unc” value (C. elegans; [7]) was 0.4444, the “Fraction No Phenotype” value (C. elegans; [7]) was 0.56 and the “Fraction Parayzed” value (C. elegans; [7]) was 0. The “Fraction Coiled” value (C. elegans; [8]) was 0.00, the “Fraction Jerky-Unc” value (C. elegans; [8]) was 0.3889 and the “Fraction No Phenotype” value (C. elegans; [8]) was 0.61. For the same compound, the “Fraction Parayzed” value (C. elegans; [8]) was 0, the “Fraction Coiled” value (C. elegans; [9]) was 0.0566 and the “Fraction Jerky-Unc” value (C. elegans; [9]) was 0.62. The “Fraction No Phenotype” value (C. elegans; [9]) was 0.32, the “Fraction Parayzed” value (C. elegans; [9]) was 0.00 and the “Fraction Coiled” value (C. elegans; [10]) was 0.0556. For the same compound, the “Fraction Jerky-Unc” value (C. elegans; [10]) was 0.7222, the “Fraction No Phenotype” value (C. elegans; [10]) was 0.22 and the “Fraction Parayzed” value (C. elegans; [10]) was 0. For the same compound, the “Fraction Coiled” value (C. elegans; [11]) was 0.06, the “Fraction Jerky-Unc” value (C. elegans; [11]) was 0.5294 and the “Fraction No Phenotype” value (C. elegans; [11]) was 0.41. The “Fraction Parayzed” value (C. elegans; [11]) was 0, the “Fraction Coiled” value (C. elegans; [12]) was 0.0556 and the “Fraction Jerky-Unc” value (C. elegans; [12]) was 0.6111. The “Fraction No Phenotype” value (C. elegans; [12]) was 0.33, the “Fraction Parayzed” value (C. elegans; [12]) was 0 and the “atypical locomotion (number of animals)” value (C. elegans; 60uM) was 0 and 1 and 3 and 5 and 2. For the same compound, the “coiled (number of animals)” value (C. elegans; 60uM) was 1 and 0, the “no phene (number of animals)” value (C. elegans; 60uM) was 19 and 18 and 17 and 15 and the “paralyzed (number of animals)” value (C. elegans; 60uM) was 0. For the same compound, the “any phene: mean % fraction” value (C. elegans; 60uM) was 11.6667%, the “Fraction Coiled” value (C. elegans; [13]) was 0.0556 and the “Fraction Jerky-Unc” value (C. elegans; [13]) was 0.74. For the same compound, the “Fraction No Phenotype” value (C. elegans; [13]) was 0.17, the “Fraction Parayzed” value (C. elegans; [13]) was 0.037 and the “Fraction Coiled” value (C. elegans; [14]) was 0.11. The “Fraction Jerky-Unc” value (C. elegans; [14]) was 0.7778, the “Fraction No Phenotype” value (C. elegans; [14]) was 0.0556 and the “Fraction Parayzed” value (C. elegans; [14]) was 0.05556. The “Fraction Coiled” value (C. elegans; [15]) was 0.00, the “Fraction Jerky-Unc” value (C. elegans; [15]) was 0.7222 and the “Fraction No Phenotype” value (C. elegans; [15]) was 0.28. For the same compound, the “Fraction Parayzed” value (C. elegans; [15]) was 0, the “Fraction Coiled” value (C. elegans; [16]) was 0.0556 and the “Fraction Jerky-Unc” value (C. elegans; [16]) was 0.7222. For the same compound, the “Fraction No Phenotype” value (C. elegans; [16]) was 0.17, the “Fraction Parayzed” value (C. elegans; [16]) was 0.05556 and the “Fraction Coiled” value (C. elegans; [17]) was 0.11. The “Fraction Jerky-Unc” value (C. elegans; [17]) was 0.80, the “Fraction No Phenotype” value (C. elegans; [17]) was 0.0741 and the “Fraction Parayzed” value (C. elegans; [17]) was 0.0185. For the same compound, the “Fraction Coiled” value (C. elegans; [18]) was 0.11, the “Fraction Jerky-Unc” value (C. elegans; [18]) was 0.8333 and the “Fraction No Phenotype” value (C. elegans; [18]) was 0.00. The “Fraction Parayzed” value (C. elegans; [18]) was 0.05556, the “Fraction Coiled” value (C. elegans; [19]) was 0.11 and the “Fraction Jerky-Unc” value (C. elegans; [19]) was 0.7222. The “Fraction No Phenotype” value (C. elegans; [19]) was 0.17, the “Fraction Parayzed” value (C. elegans; [19]) was 0 and the “Fraction Coiled” value (C. elegans; [20]) was 0.11. For the same compound, the “Fraction Jerky-Unc” value (C. elegans; [20]) was 0.8333, the “Fraction No Phenotype” value (C. elegans; [20]) was 0.0556 and the “Fraction Parayzed” value (C. elegans; [20]) was 0. For the same compound, the EC50 (C. elegans; Caenorhabditis elegans, 1 h) was 38.6 ± 3.5 µM, the “Fraction Coiled” value (C. elegans; [21]) was 0.00 and the “Fraction Jerky-Unc” value (C. elegans; [21]) was 0.17. For the same compound, the “Fraction No Phenotype” value (C. elegans; [21]) was 0.83, the “Fraction Parayzed” value (C. elegans; [21]) was 0.00 and the “Fraction Coiled” value (C. elegans; [22]) was 0.00. For the same compound, the “Fraction Jerky-Unc” value (C. elegans; [22]) was 0.41, the “Fraction No Phenotype” value (C. elegans; [22]) was 0.59 and the “Fraction Parayzed” value (C. elegans; [22]) was 0.00. The “Fraction Coiled” value (C. elegans; [23]) was 0.0566, the “Fraction Jerky-Unc” value (C. elegans; [23]) was 0.62 and the “Fraction No Phenotype” value (C. elegans; [23]) was 0.32. For the same compound, the “Fraction Parayzed” value (C. elegans; [23]) was 0.00, the “Fraction Coiled” value (C. elegans; [24]) was 0.0556 and the “Fraction Jerky-Unc” value (C. elegans; [24]) was 0.74. For the same compound, the “Fraction No Phenotype” value (C. elegans; [24]) was 0.17, the “Fraction Parayzed” value (C. elegans; [24]) was 0.037 and the “Fraction Coiled” value (C. elegans; [25]) was 0.11. For the same compound, the “Fraction Jerky-Unc” value (C. elegans; [25]) was 0.80, the “Fraction No Phenotype” value (C. elegans; [25]) was 0.0741 and the “Fraction Parayzed” value (C. elegans; [25]) was 0.0185. For the same compound, the “fold difference in C. elegans EC50, Vesamicol vs Nemacol-1” value (C. elegans; Vesamicol EC50 higher, Nemacol-1 more potent) was 5.4 fold, the “mean % any phene (coiled, jerky-Unc or paralyzed)” value (shortened to “mean % any phene”) (Pristionchus pacificus; conc 3.75, observed at one hour) was 0% and the “mean % any phene” value (Pristionchus pacificus; conc 15, observed at one hour) was 0.8333%. The “mean % any phene” value (Pristionchus pacificus; conc 60, observed at one hour) was 9.167% and the EC50 (Pristionchus pacificus; Pristionchus pacificus, 1 h, read-out: P. pacificus motor disruption EC50) was over 60 µM.
